# Experimental data taken from ChEMBL document CHEMBL3351520, “Discovery of lesser known flavones as inhibitors of NF-κB signaling in MDA-MB-231 breast cancer cells--A SAR study” (Bioorg Med Chem Lett, 2014).
# Active and inactive are the calls of the source. The rule behind the calls is not given here.
# Experiments:
# [1] = target: T1, Nuclear factor NF-kappa-B complex (Homo sapiens) (UniProt Q00653+P19838+Q04206); test: Effect on NF-kappaB signaling in human MDA-MB-231 cells assessed as increase in MMP9 mRNA expression at 25 uM by quantitative RT-PCR method; format: cell-based
# [2] = target: T1, Nuclear factor NF-kappa-B complex (Homo sapiens); test: Effect on NF-kappaB signaling in human MDA-MB-231 cells assessed as increase in COX2 mRNA expression at 25 uM by quantitative RT-PCR method; format: cell-based
# [3] = target: T1, Nuclear factor NF-kappa-B complex (Homo sapiens); test: Inhibition of basal NF-kappaB signaling in human MDA-MB-231 cells assessed as reduction in MMP9 mRNA expression at 3.125 uM by quantitative RT-PCR method relative to untreated control; format: cell-based
# [4] = target: T1, Nuclear factor NF-kappa-B complex (Homo sapiens); test: Inhibition of basal NF-kappaB signaling in human MDA-MB-231 cells assessed as reduction in MMP9 mRNA expression at 6.25 uM by quantitative RT-PCR method relative to untreated control; format: cell-based
# [5] = target: T1, Nuclear factor NF-kappa-B complex (Homo sapiens); test: Inhibition of basal NF-kappaB signaling in human MDA-MB-231 cells assessed as reduction in MMP9 mRNA expression at 12.5 uM by quantitative RT-PCR method relative to untreated control; format: cell-based
# [6] = target: T1, Nuclear factor NF-kappa-B complex (Homo sapiens); test: Inhibition of basal NF-kappaB signaling in human MDA-MB-231 cells assessed as reduction in MMP9 mRNA expression at 25 uM by quantitative RT-PCR method relative to untreated control; format: cell-based
# [7] = target: T1, Nuclear factor NF-kappa-B complex (Homo sapiens); test: Inhibition of basal NF-kappaB signaling in human MDA-MB-231 cells assessed as reduction in MMP9 mRNA expression at 50 uM by quantitative RT-PCR method relative to untreated control; format: cell-based
# [8] = target: T1, Nuclear factor NF-kappa-B complex (Homo sapiens); test: Inhibition of NF-kappaB signaling in human MDA-MB-231 cells assessed as reduction in PMA-stimulated MMP9 mRNA expression at 12.5 uM pre-incubated before PMA stimulation by quantitative RT-PCR method relative to untreated control; format: cell-based
# [9] = target: T1, Nuclear factor NF-kappa-B complex (Homo sapiens); test: Inhibition of NF-kappaB signaling in human MDA-MB-231 cells assessed as reduction in PMA-stimulated MMP9 mRNA expression at 25 uM pre-incubated before PMA stimulation by quantitative RT-PCR method relative to untreated control; format: cell-based
# [10] = target: T1, Nuclear factor NF-kappa-B complex (Homo sapiens); test: Inhibition of NF-kappaB signaling in human MDA-MB-231 cells assessed as reduction in PMA-stimulated MMP9 mRNA expression at 50 uM pre-incubated before PMA stimulation by quantitative RT-PCR method relative to untreated control; format: cell-based
# [11] = target: T1, Nuclear factor NF-kappa-B complex (Homo sapiens); test: Inhibition of basal NF-kappaB signaling in human MDA-MB-231 cells assessed as reduction in COX2 mRNA expression at 25 uM by quantitative RT-PCR method relative to untreated control; format: cell-based
# [12] = target: T1, Nuclear factor NF-kappa-B complex (Homo sapiens); test: Inhibition of NF-kappaB signaling in human MDA-MB-231 cells assessed as reduction in PMA-stimulated COX2 mRNA expression at 25 uM pre-incubated before PMA stimulation by quantitative RT-PCR method relative to untreated control; format: cell-based
# [13] = target: T1, Nuclear factor NF-kappa-B complex (Homo sapiens); test: Inhibition of basal NF-kappaB signaling in human MDA-MB-231 cells assessed as reduction in MMP9 mRNA expression at 12.5 uM by quantitative RT-PCR method; format: cell-based
# MDA-MB-231 [14] = test: Cytotoxicity against non-stimulated human MDA-MB-231 cells assessed as induction of cell death up to 25 uM after 48 hrs by MTT assay; format: functional
# MDA-MB-231 [15] = test: Cytotoxicity against PMA-stimulated human MDA-MB-231 cells assessed as induction of cell death up to 25 uM after 48 hrs by MTT assay; format: functional
# MDA-MB-231 [16] = test: Cytotoxicity against non-stimulated human MDA-MB-231 cells assessed as induction of cell death at 50 uM after 48 hrs by MTT assay; format: functional
# MDA-MB-231 [17] = test: Cytotoxicity against PMA-stimulated human MDA-MB-231 cells assessed as induction of cell death at 50 uM after 48 hrs by MTT assay; format: functional
# MDA-MB-231 [18] = test: Induction of cell cycle arrest in PMA-stimulated human MDA-MB-231 cells assessed as accumulation at G2/M phase at 25 uM after 48 hrs by propidium iodide staining based flow cytometry; format: functional
# MDA-MB-231 [19] = test: Induction of cell cycle arrest in un-stimulated human MDA-MB-231 cells assessed as accumulation at G2/M phase at 25 uM after 48 hrs by propidium iodide staining based flow cytometry; format: functional
# [20] = Toxicity against human MDA-MB-231 cells after 48 hrs by MTT assay; format: cell-based; conditions: read-out: MNCC
# MDA-MB-231 [21] = test: Induction of cell cycle arrest in PMA-stimulated human MDA-MB-231 cells assessed as accumulation at G1 phase at 25 uM after 48 hrs by propidium iodide staining based flow cytometry (reference value: 52%); format: functional
# MDA-MB-231 [22] = test: Induction of cell cycle arrest in PMA-stimulated human MDA-MB-231 cells assessed as accumulation at S phase at 25 uM after 48 hrs by propidium iodide staining based flow cytometry (reference value: 29%); format: functional
# MDA-MB-231 [23] = test: Induction of cell cycle arrest in PMA-stimulated human MDA-MB-231 cells assessed as accumulation at G2/M phase at 25 uM after 48 hrs by propidium iodide staining based flow cytometry (reference value: 19%); format: functional
# MDA-MB-231 [24] = test: Inhibition of cell migration of PMA-stimulated human MDA-MB-231 cells; format: functional, cell-based
# MDA-MB-231 [25] = test: Inhibition of cell invasion of PMA-stimulated human MDA-MB-231 cells; format: functional, cell-based
# MDA-MB-231 [26] = test: Induction apoptosis in PMA-stimulated human MDA-MB-231 cells assessed as mitochondrial disruption up to 50 uM uM after 48 hrs by JC1 staining based fluorescence assay; format: functional, cell-based
# [27] = target: T1, Nuclear factor NF-kappa-B complex (Homo sapiens); test: Inhibition of NF-kappaB signaling in human MDA-MB-231 cells assessed as reduction in PMA-stimulated MMP9 protein expression at 6.25 to 50 uM pre-incubated before PMA stimulation by SDS-PAGE gelatin zymography; format: cell-based
# MDA-MB-231 [28] = test: Induction apoptosis in PMA-stimulated human MDA-MB-231 cells assessed as mitochondrial disruption at 10 uM after 48 hrs by JC1 staining based fluorescence assay; format: functional, cell-based
# [29] = target: T1, Nuclear factor NF-kappa-B complex (Homo sapiens); test: Inhibition of non-stimulated NF-kappaB signaling (unknown origin) expressed in MDA-MB-231 cells at 5 uM incubated for 16 hrs by luciferase reporter gene assay; format: cell-based
# [30] = target: T1, Nuclear factor NF-kappa-B complex (Homo sapiens); test: Inhibition of doxorubicin-stimulated NF-kappaB signaling (unknown origin) expressed in MDA-MB-231 cells at 5 uM incubated for 16 hrs by luciferase reporter gene assay; format: cell-based
# [31] = target: T1, Nuclear factor NF-kappa-B complex (Homo sapiens); test: Inhibition of NF-kappaB signaling in human MDA-MB-231 cells assessed as reduction in PMA-stimulated MMP9 mRNA expression at 5 uM pre-incubated for 8 hrs before PMA stimulation for 4 hrs by quantitative RT-PCR method; format: cell-based
# [32] = target: T1, Nuclear factor NF-kappa-B complex (Homo sapiens); test: Inhibition of NF-kappaB signaling in human MDA-MB-231 cells assessed as reduction in PMA-stimulated COX2 mRNA expression at 5 uM pre-incubated for 8 hrs before PMA stimulation for 4 hrs by quantitative RT-PCR method; format: cell-based
# MDA-MB-231 [33] = test: Induction apoptosis in PMA-stimulated human MDA-MB-231 cells assessed as mitochondrial disruption 3.125 to 25 uM uM after 48 hrs by JC1 staining based fluorescence assay; format: functional, cell-based
# T1 sequence (P19838 whole entry, looked up): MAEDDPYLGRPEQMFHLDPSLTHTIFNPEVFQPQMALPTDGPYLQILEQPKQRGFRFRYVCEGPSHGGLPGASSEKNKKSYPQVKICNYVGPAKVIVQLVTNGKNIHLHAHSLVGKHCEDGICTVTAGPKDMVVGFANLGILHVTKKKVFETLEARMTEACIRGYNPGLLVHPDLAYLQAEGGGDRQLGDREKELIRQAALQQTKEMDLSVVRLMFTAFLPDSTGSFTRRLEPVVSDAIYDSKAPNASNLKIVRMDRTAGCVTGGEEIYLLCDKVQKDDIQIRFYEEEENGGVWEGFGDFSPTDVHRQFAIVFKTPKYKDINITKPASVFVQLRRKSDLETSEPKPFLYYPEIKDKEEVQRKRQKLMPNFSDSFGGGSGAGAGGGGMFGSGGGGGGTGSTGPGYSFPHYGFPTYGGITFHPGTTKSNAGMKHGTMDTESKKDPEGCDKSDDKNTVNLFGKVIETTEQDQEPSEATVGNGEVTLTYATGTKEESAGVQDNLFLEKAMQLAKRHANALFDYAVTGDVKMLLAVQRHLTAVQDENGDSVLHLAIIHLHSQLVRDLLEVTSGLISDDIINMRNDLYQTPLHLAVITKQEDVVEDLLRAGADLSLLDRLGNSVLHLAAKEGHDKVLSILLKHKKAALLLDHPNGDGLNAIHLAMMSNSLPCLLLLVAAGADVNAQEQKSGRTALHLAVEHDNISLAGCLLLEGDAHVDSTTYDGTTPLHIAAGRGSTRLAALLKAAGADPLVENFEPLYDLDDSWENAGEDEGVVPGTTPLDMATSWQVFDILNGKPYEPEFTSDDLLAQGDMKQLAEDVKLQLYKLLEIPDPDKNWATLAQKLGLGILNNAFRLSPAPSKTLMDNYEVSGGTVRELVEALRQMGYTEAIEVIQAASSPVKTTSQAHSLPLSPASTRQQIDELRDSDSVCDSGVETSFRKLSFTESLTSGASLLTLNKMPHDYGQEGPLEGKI
# T1 sequence (Q00653 whole entry, looked up): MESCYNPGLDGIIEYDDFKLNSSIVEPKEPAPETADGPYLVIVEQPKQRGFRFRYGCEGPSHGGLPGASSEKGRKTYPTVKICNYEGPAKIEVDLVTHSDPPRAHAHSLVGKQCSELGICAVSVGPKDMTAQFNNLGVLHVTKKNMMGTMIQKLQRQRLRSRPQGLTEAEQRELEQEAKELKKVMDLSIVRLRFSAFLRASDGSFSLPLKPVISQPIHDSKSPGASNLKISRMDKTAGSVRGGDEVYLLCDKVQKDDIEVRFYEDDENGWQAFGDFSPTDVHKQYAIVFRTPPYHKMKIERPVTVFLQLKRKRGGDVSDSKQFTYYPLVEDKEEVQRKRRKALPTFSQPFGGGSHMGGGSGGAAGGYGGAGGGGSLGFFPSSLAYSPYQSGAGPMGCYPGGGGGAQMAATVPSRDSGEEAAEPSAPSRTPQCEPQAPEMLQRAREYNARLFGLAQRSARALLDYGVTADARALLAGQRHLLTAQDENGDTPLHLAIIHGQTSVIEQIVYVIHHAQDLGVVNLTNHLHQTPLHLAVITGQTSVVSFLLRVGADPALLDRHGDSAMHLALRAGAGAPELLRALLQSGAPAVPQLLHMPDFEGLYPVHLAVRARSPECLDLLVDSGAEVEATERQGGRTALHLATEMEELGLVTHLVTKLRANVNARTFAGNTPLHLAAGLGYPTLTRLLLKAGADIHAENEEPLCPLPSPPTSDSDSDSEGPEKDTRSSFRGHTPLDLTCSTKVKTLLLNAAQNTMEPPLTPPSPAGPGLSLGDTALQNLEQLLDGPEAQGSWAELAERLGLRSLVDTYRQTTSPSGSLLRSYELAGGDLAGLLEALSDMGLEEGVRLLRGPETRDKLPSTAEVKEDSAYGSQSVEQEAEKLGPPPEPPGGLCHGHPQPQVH
# T1 sequence (Q04206 whole entry, looked up): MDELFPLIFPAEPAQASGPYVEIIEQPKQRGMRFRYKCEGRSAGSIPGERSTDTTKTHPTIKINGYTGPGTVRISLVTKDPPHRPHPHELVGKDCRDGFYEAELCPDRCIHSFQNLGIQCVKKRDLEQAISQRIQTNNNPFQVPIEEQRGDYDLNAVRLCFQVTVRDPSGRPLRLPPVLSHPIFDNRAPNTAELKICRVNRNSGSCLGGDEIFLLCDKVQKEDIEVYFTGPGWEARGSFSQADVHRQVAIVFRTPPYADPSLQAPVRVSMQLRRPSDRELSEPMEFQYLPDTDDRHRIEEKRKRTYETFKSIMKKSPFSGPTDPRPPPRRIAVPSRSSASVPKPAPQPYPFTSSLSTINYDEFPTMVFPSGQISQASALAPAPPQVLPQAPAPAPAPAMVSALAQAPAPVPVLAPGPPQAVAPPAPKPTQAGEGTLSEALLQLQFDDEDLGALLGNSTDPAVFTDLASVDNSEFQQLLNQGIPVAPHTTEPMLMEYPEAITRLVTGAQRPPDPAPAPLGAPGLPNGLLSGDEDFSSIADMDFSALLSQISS
smiles,measurement,setting,value
O=c1c(O)c(-c2ccc(O)c(O)c2)oc2cc(O)c(O)c(O)c12,Activity,[1],Active
same,Activity,[2],Active
COc1cc(-c2cc(=O)c3c(O)cc(O)cc3o2)ccc1O [CHRYSOERIOL],fold change (FC),[3],0.708
same,fold change (FC),[4],0.361
same,fold change (FC),[5],0.208
same,fold change (FC),[6],0.211
same,fold change (FC),[7],0.204
same,fold change (FC),[8],3.67
same,fold change (FC),[9],2.11
same,fold change (FC),[10],1.33
same,inhibition,[11],Active
same,inhibition,[12],Active
same,inhibition,[13],80%
same,Activity,MDA-MB-231 [14],<10%
same,Activity,MDA-MB-231 [15],<10%
same,Activity,MDA-MB-231 [16],10%
same,Activity,MDA-MB-231 [17],10%
same,Activity,MDA-MB-231 [18],Dose-dependent effect
same,Activity,MDA-MB-231 [19],Dose-dependent effect
same,MNTC at 48 h,[20],25 µM
same,Activity,MDA-MB-231 [21],34%
same,Activity,MDA-MB-231 [22],27%
same,Activity,MDA-MB-231 [23],39%
same,inhibition,MDA-MB-231 [24],Dose-dependent effect
same,inhibition,MDA-MB-231 [25],Dose-dependent effect
same,Activity,MDA-MB-231 [26],inactive
same,inhibition,[27],Active
COc1cccc2c1C(=O)c1c(O)c3c(c(O)c1C2=O)C[C@@](O)(C(=O)CO)C[C@@H]3O[C@H]1C[C@H](N)[C@H](O)[C@H](C)O1,Activity,MDA-MB-231 [28],Active
O=c1c(O)c(-c2ccc(O)c(O)c2)oc2c(O)c(O)cc(O)c12,Activity,[1],Active
same,Activity,[2],Active
C=C1C(=O)O[C@@H]2C3O[C@]3(C)CC/C=C(\C)CC[C@@H]12 (stereo partly drawn),inhibition,[29],Active
same,inhibition,[30],Active
same,inhibition,[31],Active
same,inhibition,[32],Active
COc1ccc(-c2cc(=O)c3c(O)cc(O)cc3o2)cc1,inhibition,[6],Active
same,inhibition,[9],Active
same,inhibition,[11],Active
same,inhibition,[12],Active
COc1ccc(-c2cc(=O)c3c(O)cc(O)cc3o2)cc1O,inhibition,[6],Active
same,inhibition,[9],Active
same,inhibition,[11],Active
same,inhibition,[12],Active
O=c1c(O)c(-c2ccc(O)c(O)c2)oc2cc(O)cc(O)c12,inhibition,[6],Active
same,inhibition,[9],Active
same,inhibition,[11],Active
same,inhibition,[12],Active
same,inhibition,MDA-MB-231 [24],inactive
same,Activity,MDA-MB-231 [33],Active
